Columns and labels:
Assay in all cases: Post-emergence test experiment (greenhouse pot, spray at 2-3 leaf stage)
Type in all cases: in vivo
Conditions in all cases: 1000 g/ha; post-emergence spray at 2-3 leaf stage; assessed after 3 weeks; fresh weight inhibition rate
Monochoria vaginalis = test system: Monochoria vaginalis
Description: (§1) The activity level standard of harmful plants destruction (i. e. growth inhibition rate) is as follows: • Level 5: the growth inhibition rate is greater than 85%; • Level 4: the growth inhibition rate is equal to or greater than 60% and less than 85%; • Level 3: the growth inhibition rate is equal to or greater than 40% and less than 60%; • Level 2: the growth inhibition rate is equal to or greater than 20% and less than 40%; • Level 1: the growth inhibition rate is equal to or greater than 5% and less than 20%; • Level 0: the growth inhibition rate is less than 5%;
(§2) The above described growth inhibition rate is fresh weight inhibition rate.
(§3) Post-emergence test experiment: Monocotyledonous and dicotyledonous weed seeds and main crop seeds (i. e. wheat, corn, rice, soybean, cotton, oilseed, millet and sorghum.) were put into a plastic pot loaded with soil. Then covered with 0.5-2 cm soil, the seeds were allowed to grow in good greenhouse environment. The test plants were treated at 2-3 leaf stage 2 weeks after sowing. The test compounds of the invention were dissolved with acetone respectively, then added with tween-80, and using 1.5 liters per hectare of an emulsible concentrate of methyl oleate as a synergist, and diluted by certain amount of water to certain concentration. The solution was sprayed to the plants with a sprayer. Then the plants were cultured for 3 weeks in the greenhouse, and the experiment result of weed controlling effect after 3 weeks was listed in tables 3-4.

Galium spurium = test system: Galium spurium
Description: as §1, §2, §3

Abutilon theophrasti = test system: Abutilon theophrasti
Description: as §1, §2, §3

SMILES | Activity level (growth inhibition rate) Monochoria Vaginalis (Monochoria vaginalis) | Activity level (growth inhibition rate) Galium spurium (Galium spurium) | Activity level (growth inhibition rate) Abutilon theophrasti (Abutilon theophrasti)
CCC(Oc1nc(F)c(Cl)c(N)c1Cl)C(=O)OCc1ccccc1 (stereo not drawn) [Compound 25] | 5 (Level 5: the growth inhibition rate is greater than 85%) | 5 (Level 5: the growth inhibition rate is greater than 85%) | 5 (Level 5: the growth inhibition rate is greater than 85%)
CCCC(Oc1nc(F)c(Cl)c(N)c1Cl)C(=O)SCc1ccccc1 (stereo not drawn) [Compound 26] | 5 (Level 5: the growth inhibition rate is greater than 85%) | 5 (Level 5: the growth inhibition rate is greater than 85%) | 5 (Level 5: the growth inhibition rate is greater than 85%)
Nc1c(Cl)c(F)nc(OC(C(=O)OCc2ccccc2)C2CC2)c1Cl (stereo not drawn) [Compound 28] | 5 (Level 5: the growth inhibition rate is greater than 85%) | 5 (Level 5: the growth inhibition rate is greater than 85%) | 5 (Level 5: the growth inhibition rate is greater than 85%)
COCC(Oc1nc(F)c(Cl)c(N)c1Cl)C(=O)OCc1ccccc1 (stereo not drawn) [Compound 29] | 5 (Level 5: the growth inhibition rate is greater than 85%) | 5 (Level 5: the growth inhibition rate is greater than 85%) | 5 (Level 5: the growth inhibition rate is greater than 85%)
COCCC(Oc1nc(F)c(Cl)c(N)c1Cl)C(=O)SCc1ccccc1 (stereo not drawn) [Compound 30] | 5 (Level 5: the growth inhibition rate is greater than 85%) | 5 (Level 5: the growth inhibition rate is greater than 85%) | 5 (Level 5: the growth inhibition rate is greater than 85%)
COC(C)C(Oc1nc(F)c(Cl)c(N)c1Cl)C(=O)OCc1ccccc1 (stereo not drawn) [Compound 31] | 5 (Level 5: the growth inhibition rate is greater than 85%) | 5 (Level 5: the growth inhibition rate is greater than 85%) | 5 (Level 5: the growth inhibition rate is greater than 85%)
C=CC(Oc1nc(F)c(Cl)c(N)c1Cl)C(=O)OCc1ccccc1 (stereo not drawn) [Compound 32] | 5 (Level 5: the growth inhibition rate is greater than 85%) | 5 (Level 5: the growth inhibition rate is greater than 85%) | 5 (Level 5: the growth inhibition rate is greater than 85%)
C#CC(Oc1nc(F)c(Cl)c(N)c1Cl)C(=O)SCc1ccccc1 (stereo not drawn) [Compound 33] | 5 (Level 5: the growth inhibition rate is greater than 85%) | 5 (Level 5: the growth inhibition rate is greater than 85%) | 5 (Level 5: the growth inhibition rate is greater than 85%)
Nc1c(Cl)c(F)nc(OC(F)C(=O)OCc2ccccc2)c1Cl (stereo not drawn) [Compound 34] | 5 (Level 5: the growth inhibition rate is greater than 85%) | 5 (Level 5: the growth inhibition rate is greater than 85%) | 5 (Level 5: the growth inhibition rate is greater than 85%)
Nc1c(Cl)c(F)nc(OC(Cl)C(=O)OCc2ccccc2)c1Cl (stereo not drawn) [Compound 35] | 5 (Level 5: the growth inhibition rate is greater than 85%) | 5 (Level 5: the growth inhibition rate is greater than 85%) | 5 (Level 5: the growth inhibition rate is greater than 85%)
Nc1c(Cl)c(F)nc(OC(Br)C(=O)SCc2ccccc2)c1Cl (stereo not drawn) [Compound 36] | 5 (Level 5: the growth inhibition rate is greater than 85%) | 5 (Level 5: the growth inhibition rate is greater than 85%) | 5 (Level 5: the growth inhibition rate is greater than 85%)
Nc1c(Cl)c(F)nc(OC(CCl)C(=O)OCc2ccccc2)c1Cl (stereo not drawn) [Compound 37] | 5 (Level 5: the growth inhibition rate is greater than 85%) | 5 (Level 5: the growth inhibition rate is greater than 85%) | 5 (Level 5: the growth inhibition rate is greater than 85%)
Nc1c(Cl)c(F)nc(OC(CF)C(=O)SCc2ccccc2)c1Cl (stereo not drawn) [Compound 38] | 5 (Level 5: the growth inhibition rate is greater than 85%) | 5 (Level 5: the growth inhibition rate is greater than 85%) | 5 (Level 5: the growth inhibition rate is greater than 85%)
Nc1c(Cl)c(F)nc(OC(C(=O)OCc2ccccc2)C(F)F)c1Cl (stereo not drawn) [Compound 39] | 5 (Level 5: the growth inhibition rate is greater than 85%) | 5 (Level 5: the growth inhibition rate is greater than 85%) | 5 (Level 5: the growth inhibition rate is greater than 85%)
Nc1c(Cl)c(F)nc(OC(CCCl)C(=O)OCc2ccccc2)c1Cl (stereo not drawn) [Compound 40] | 5 (Level 5: the growth inhibition rate is greater than 85%) | 5 (Level 5: the growth inhibition rate is greater than 85%) | 5 (Level 5: the growth inhibition rate is greater than 85%)
Nc1c(Cl)c(F)nc(OC(CC(F)(F)F)C(=O)SCc2ccccc2)c1Cl (stereo not drawn) [Compound 42] | 5 (Level 5: the growth inhibition rate is greater than 85%) | 5 (Level 5: the growth inhibition rate is greater than 85%) | 5 (Level 5: the growth inhibition rate is greater than 85%)
Nc1c(Cl)c(F)nc(OC(N)C(=O)OCc2ccccc2)c1Cl (stereo not drawn) [Compound 45] | 5 (Level 5: the growth inhibition rate is greater than 85%) | 5 (Level 5: the growth inhibition rate is greater than 85%) | 5 (Level 5: the growth inhibition rate is greater than 85%)
CSC(Oc1nc(F)c(Cl)c(N)c1Cl)C(=O)OCc1ccccc1 (stereo not drawn) [Compound 47] | 5 (Level 5: the growth inhibition rate is greater than 85%) | 5 (Level 5: the growth inhibition rate is greater than 85%) | 5 (Level 5: the growth inhibition rate is greater than 85%)
Nc1c(Cl)c(F)nc(OC(CO)C(=O)OCc2ccccc2)c1Cl (stereo not drawn) [Compound 48] | 5 (Level 5: the growth inhibition rate is greater than 85%) | 5 (Level 5: the growth inhibition rate is greater than 85%) | 5 (Level 5: the growth inhibition rate is greater than 85%)
